The NIST ThermoML archive (doi:10.1016/j.jct.2005.03.020)
Numbers after ± are expanded uncertainties.

Tests used:
[1] = xn = mol fraction of the nth substance listed; details: 298.15 K, 101.33 kPa, Liquid
[2] = excess molar enthalpy (molar enthalpy of mixing); xn = mol fraction of the nth substance listed; details: 298.15 K, 101.33 kPa, Liquid

ClCCCl [1,2-dichloroethane] + CCOC(C)=O
Details	excess molar enthalpy [kcal/mol]	mass density [kg/m3]
[1], x2 = 0.0497	–	1223.67 ± 0.78
[1], x2 = 0.0983	–	1202.79 ± 0.73
[1], x2 = 0.1492	–	1181.45 ± 0.68
[1], x2 = 0.1997	–	1160.95 ± 0.64
[1], x2 = 0.2524	–	1140.18 ± 0.59
[1], x2 = 0.3059	–	1119.62 ± 0.55
[1], x2 = 0.3618	–	1098.71 ± 0.5
[1], x2 = 0.4184	–	1078.16 ± 0.46
[1], x2 = 0.4765	–	1057.68 ± 0.42
[1], x2 = 0.5356	–	1037.35 ± 0.38
[1], x2 = 0.5982	–	1016.38 ± 0.34
[1], x2 = 0.6603	–	996.21 ± 0.32
[1], x2 = 0.7247	–	975.88 ± 0.35
[1], x2 = 0.7893	–	955.96 ± 0.38
[1], x2 = 0.857	–	935.65 ± 0.41
[1], x2 = 0.928	–	914.85 ± 0.45
[2], x2 = 0.0368	-0.00939 ± 0.000526	–
[2], x2 = 0.0819	-0.021 ± 0.000693	–
[2], x2 = 0.131	-0.0345 ± 0.000908	–
[2], x2 = 0.1846	-0.0491 ± 0.00115	–
[2], x2 = 0.2408	-0.0642 ± 0.00136	–
[2], x2 = 0.295	-0.0779 ± 0.00158	–
[2], x2 = 0.3419	-0.0867 ± 0.00172	–
[2], x2 = 0.3836	-0.0935 ± 0.00182	–
[2], x2 = 0.4244	-0.101 ± 0.00194	–
[2], x2 = 0.46	-0.106 ± 0.00201	–
[2], x2 = 0.4728	-0.107 ± 0.00203	–
[2], x2 = 0.4972	-0.108 ± 0.00203	–
[2], x2 = 0.5087	-0.108 ± 0.00203	–
[2], x2 = 0.5523	-0.107 ± 0.00203	–
[2], x2 = 0.604	-0.104 ± 0.00198	–
[2], x2 = 0.6668	-0.0965 ± 0.00186	–
[2], x2 = 0.747	-0.0807 ± 0.00163	–
[2], x2 = 0.8328	-0.058 ± 0.00127	–
[2], x2 = 0.9184	-0.0322 ± 0.000884	–

ClCCCCl [1,3-dichloropropane] + CCCC(=O)OCC
Details	excess molar enthalpy [kcal/mol]	mass density [kg/m3]
[1], x2 = 0.0446	–	1159.59 ± 0.83
[1], x2 = 0.088	–	1141.99 ± 0.82
[1], x2 = 0.1341	–	1124.03 ± 0.8
[1], x2 = 0.1825	–	1105.75 ± 0.79
[1], x2 = 0.2294	–	1088.7 ± 0.79
[1], x2 = 0.2836	–	1069.63 ± 0.78
[1], x2 = 0.3377	–	1051.42 ± 0.78
[1], x2 = 0.3924	–	1033.68 ± 0.78
[1], x2 = 0.4475	–	1016.45 ± 0.78
[1], x2 = 0.5058	–	998.9 ± 0.79
[1], x2 = 0.5686	–	980.73 ± 0.82
[1], x2 = 0.6322	–	963.09 ± 0.84
[1], x2 = 0.6986	–	945.45 ± 0.88
[1], x2 = 0.7724	–	926.66 ± 0.91
[1], x2 = 0.8405	–	910.03 ± 0.94
[2], x2 = 0.045	-0.00619 ± 0.000478	–
[2], x2 = 0.0966	-0.0152 ± 0.000621	–
[2], x2 = 0.1504	-0.0234 ± 0.000741	–
[2], x2 = 0.2076	-0.0352 ± 0.000908	–
[2], x2 = 0.2635	-0.0452 ± 0.00108	–
[2], x2 = 0.3171	-0.0564 ± 0.00124	–
[2], x2 = 0.3678	-0.0673 ± 0.00141	–
[2], x2 = 0.4155	-0.0743 ± 0.00153	–
[2], x2 = 0.4596	-0.0781 ± 0.00158	–
[2], x2 = 0.5012	-0.0799 ± 0.0016	–
[2], x2 = 0.5417	-0.0797 ± 0.0016	–
[2], x2 = 0.605	-0.0778 ± 0.00158	–
[2], x2 = 0.6754	-0.071 ± 0.00148	–
[2], x2 = 0.7523	-0.0583 ± 0.00127	–
[2], x2 = 0.8348	-0.0428 ± 0.00103	–
[2], x2 = 0.9216	-0.0239 ± 0.000741	–

ClCCCCl [1,3-dichloropropane] + CCOC(=O)CC
[1]
Details	mass density [kg/m3]
x2 = 0.0533	1159.49 ± 0.81
x2 = 0.1039	1141.98 ± 0.78
x2 = 0.1552	1124.63 ± 0.74
x2 = 0.2595	1090.43 ± 0.68
x2 = 0.3141	1073.08 ± 0.65
x2 = 0.3691	1056.04 ± 0.62
x2 = 0.4264	1038.67 ± 0.59
x2 = 0.4849	1021.36 ± 0.57
x2 = 0.6033	987.47 ± 0.54
x2 = 0.666	970.14 ± 0.55
x2 = 0.7288	953.17 ± 0.57
x2 = 0.7937	935.99 ± 0.58
x2 = 0.861	918.65 ± 0.6
x2 = 0.9271	901.62 ± 0.62

ClCCCCl [1,3-dichloropropane] + CCOC(C)=O
[1]
Details	mass density [kg/m3]
x2 = 0.0582	1160.94 ± 0.8
x2 = 0.1136	1144.62 ± 0.76
x2 = 0.1719	1127.58 ± 0.71
x2 = 0.2292	1110.81 ± 0.67
x2 = 0.2869	1094.08 ± 0.62
x2 = 0.3444	1077.42 ± 0.58
x2 = 0.4017	1061.01 ± 0.54
x2 = 0.4609	1044.12 ± 0.5
x2 = 0.5208	1027.15 ± 0.46
x2 = 0.5839	1009.34 ± 0.42
x2 = 0.6423	992.92 ± 0.4
x2 = 0.7017	976.39 ± 0.4
x2 = 0.7599	960.24 ± 0.41
x2 = 0.8205	943.48 ± 0.43
x2 = 0.8803	927.01 ± 0.44
x2 = 0.9389	911.03 ± 0.46
